Source: PMC10229078, “In vitro effects of lapachol and β-lapachone against Leishmania amazonensis” (Brazilian Journal of Medical and Biological Research, 2023)
Values joined by “and” are separate entries in the source; they are usually repeats but may differ in a detail not shown here. Equal entries are not always repeated.

Experiments:
[1] = test system: IL-2, IL-4, IL-6, IFN-γ, TNF-α, IL-17A, IL-10 production in murine macrophages; assay: Cytokine production in supernatant of amastigote assays (CBA Mouse Th1/Th2/Th17 kit); format: cell-based, BALB/c mice; settings: 24 h; for IL-2, IL-4, IFN-γ, IL-17A, and IL-10 production: macrophages infected with L. amazonensis and treated; for IL-6 levels / TNF-α levels: uninfected and infected treated macrophages, all concentrations tested
Method: For the determination of cytokines, the supernatant of the amastigote assays stored at −80°C was used (MO, macrophages (negative control); MO + L. amazonensis (6 parasites/macrophage); samples treated with lapachol at IC50/2, IC50, and 2× IC50 with L. amazonensis (+) or without (-); the same was repeated for β-lapachone). The supernatant was centrifuged, and a 50 μL aliquot was used to determine cytokine levels (in pg/mL) using the BD Cytometric Bead Array (CBA) Mouse Th1/Th2/Th17 Cytokine kit (BD Life Sciences - Biosciences, USA). The dosage was performed in triplicate and according to the manufacturer's standards. This method is based on a suspension that contains beads, in which encoded fluorescent beads have cytokines that capture antibodies to bind the proteins. The final analysis was performed by flow cytometry using the BD FacsCalibur™ flow cytometer and CellQuest Pro software. The kit allows the measurement of seven distinct populations of Th1, Th2, and Th17 cytokines (IL-2, IL-4, IL-6, IFN-γ, TNF-α, IL-17A, and IL-10) in a single sample.

[2] = test system: L. amazonensis (strains MHOM/BR/1989/ BA199); set-up: method as in ref 23 Guimarães et al.; settings: 72 h, strain MHOM/BR/1989/BA199, ref 23 Guimarães et al.; cited from earlier work
[3] = test system: Leishmania amazonensis promastigotes; assay: Promastigote growth inhibition, counting in Neubauer chamber (IC50); format: cell-based, Leishmania amazonensis (MHOM/BR/1977/LTB0016)
Method: Leishmania growth was evaluated after 24 h of incubation at 25°C with the compounds under the same conditions as previously mentioned. Then, 10 µL of the content of each well was added to a 990 µL (1/100) of formalin solution (2%), and the parasites were counted in a Neubauer chamber. The inhibitory concentration (IC50) of promastigotes was calculated by comparing with untreated promastigotes in culture medium. The results were evaluated by linear regression of the inhibition percentage. The selectivity index (SI CC50/IC50) was calculated by the ratio of toxicity concentration to macrophage vs inhibitory concentration to the parasite growth after 24 h incubation ([27]). All assays were performed in triplicate and repeated at least three times.

[4] = test system: Leishmania amazonensis promastigotes; assay: Change in cell volume and morphology of the parasites (flow cytometry FSC-H/SSC-H, SEM); format: cell-based; settings: 24 h, lapachol 76.62 µg/mL, β-lapachone 1.63 µg/mL; for Percentage population of the lower left quadrant gate (FSC-H/SSC-H, cell volume): H2O2 2 mM, untreated 93.14%
Method: Promastigote forms (2×10^7 cells) of L. amazonensis untreated (negative control) or treated with 76.62 µg/mL of lapachol and 1.63 µg/mL of β-lapachone were analyzed to observe changes in cell morphology of the parasites induced by the treatment after 24 h of incubation. […] Subsequently, the parasites were analyzed using a BD FacsCalibur flow cytometer (Becton Dickinson, USA) and CellQuest Pro software (Joseph Trotter, Scripps Research Institute, USA), and 10,000 events were acquired. Dot plots were generated, the forward scatter (FSC-H) parameter was analyzed as presenting a correlation with the cell volume.
Scanning electron microscopy (SEM) also was performed to analyze morphological changes in cell surface topography. After 24 h of treatment, the parasites were centrifuged at 576 g for 10 min, and the samples were fixed in 2.5% glutaraldehyde and 0.1 M sodium cacodylate buffer. Poly-L-lysine was used to promote the adhesion of fixed parasites on coverslips. Promastigotes were dehydrated with increasing ethanol concentrations (30-100%), submitted to critical point drying, and metalized with gold for visualization on a Shimadzu 55-550 (Japan) microscope.

[5] = test system: Leishmania amazonensis promastigotes; assay: Mitochondria membrane potential (ΔΨm), Rh123 flow cytometry; format: cell-based; settings: for Reduction in ΔΨm: lapachol 76.62 µg/mL, β-lapachone 1.63 µg/mL, H2O2 2 mM; for Variation Index (VI) of Rh123 fluorescence, (MT−MC)/MC: lapachol 76.62 μg/mL, β-lapachone 1.63 μg/mL, PC 2 mM
Method: The ΔΨm was determined using on BD FacsCalibur™ flow cytometer and CellQuest Pro software, with a total of 10.000 events acquired, using a mitochondrial-specific green-fluorescent dye Rh123 ([31]). Briefly, L. amazonensis (2×10^7 parasites/mL) were incubated with lapachol (76.62 µg/mL) and β-lapachone (1.63 µg/mL) for 1, 4, and 24 h at 25°C. After washed with PBS, the parasites were incubated with 5 μg/mL Rh123 for 15 min. After the incubation time, the cells were washed and suspended in PBS for additional incubation of 30 min for analysis. The percentage of fluorescence of Rh123, was determined by the (MT/MC)*100 equation, with MT representing the median fluorescence of the treated parasites and the MC the median fluorescence of negative controls. Alteration in ΔΨm was quantified using an index of variation (IV) obtained by the equation IV = (MT - MC)/MC, where negative IV values correspond to depolarization of the mitochondrial membrane. H2O2 (2 mM) was used as a positive control ([32]).

[6] = test system: Leishmania amazonensis promastigotes; assay: Viability assay of promastigotes, XTT colorimetric method (LD50); format: cell-based, Leishmania amazonensis (MHOM/BR/1977/LTB0016); settings: 25°C
Method: The viability of L. amazonensis (MHOM/BR/1977/LTB0016) promastigotes was evaluated using the XTT colorimetric method, which consists in the XTT salt degradation by the mitochondria forming formazan crystals. Promastigote forms (2×10^7 parasites/mL) from a culture in logarithmic growth phase were incubated with lapachol and β-lapachone diluted in 199 culture medium. The drugs were diluted in series, in a ratio of two, starting from 1/2, on a 96-well cell culture plate (TPP™ test plate, Switzerland). The compounds were tested at concentrations from 204.4 to 0.40 µg/mL (lapachol) and 157.5 to 0.31 µg/mL (β-lapachone). After 24, 48, and 72 h of incubation at 25°C, 100 μL of the XTT solution (500 μg/mL) activated with PMS (50 μg/mL) were added to each well and incubated for 4 h at 37°C. The result was measured by absorbance, determined by spectrophotometry (450/650 nm filter, VersaMax™ ELISA microplate reader, USA). The lethal dose (LD50) was defined as the concentrations of the compounds that reduced survival of L. amazonensis by 50% compared to untreated parasites in culture medium. AmB (1.96 to 0.25 µg/mL) was used as positive control of leishmanicidal activity. The therapeutic selectivity index (TSI CC50/LD50) was calculated by the ratio of toxicity to macrophage vs toxicity to parasites after 24 h incubation ([28]). All assays were performed in triplicate and repeated at least three times.

With “4-hydroxy-3-(3-methylbut-2-enyl)naphthalene-1,2-dione [lapachol]” the “IL-2, IL-4, IFN-γ, IL-17A, and IL-10 production” value [1] was “did not present significant changes”, the IL-6 levels [1] was “decrease” and the TNF-α levels [1] was “decrease”. For the same molecule, the IC50 [2] was 102 µM, the IC50 ([3]; 24 h, value in µM) was 316 µM and the “Promastigotes IC50” value ([3]; 24 h incubation, growth inhibition by counting) was 76.62 ± 1.21 µg/mL. The “Morphological changes of promastigotes (SEM, microscopy)” value [4] was “loss of cell volume, rounder shape, flagellar alterations, and cellular shrinkage”, the “Percentage population of the lower left quadrant gate (FSC-H/SSC-H, cell volume)” value [4] was 82.82% and the “Reduction in ΔΨm” value ([5]; 1 h) was 44%. The “Variation Index (VI) of Rh123 fluorescence, (MT−MC)/MC” value (from here on “Variation Index (VI)”) ([5]; 1 h) was -0.44, the “Reduction in ΔΨm” value ([5]; 4 h) was 69% and the “Variation Index (VI)” value ([5]; 4 h) was -0.69. For the same molecule, the “Reduction in ΔΨm” value ([5]; 24 h) was 30%, the “Variation Index (VI)” value ([5]; 24 h) was -0.30 and the “Promastigotes LD50” value ([6]; 24 h incubation) was 75.60 µg/mL. For the same molecule, the “Promastigotes LD50” value ([6]; 24 h incubation, listed as Lapachol (1)) was 75.60 ± 6.12 µg/mL, the “Promastigotes LD50” value ([6]; 48 h incubation) was 72.82 µg/mL and 72.82 ± 12.99 µg/mL and the “Promastigotes LD50” value ([6]; 72 h incubation) was 58.85 µg/mL and 58.85 ± 6.43 µg/mL.

For `CC1(C)CCC2=C(O1)c1ccccc1C(=O)C2=O` [β-lapachone, 2,2-dimethyl-3,4-dihydrobenzo[h]chromene-5,6-dione], the “IL-2, IL-4, IFN-γ, IL-17A, and IL-10 production” value [1] was “did not present significant changes”, the IL-6 levels [1] was “decrease” and the TNF-α levels [1] was “decrease”. The IC50 [2] was 1.39 µM, the IC50 ([3]; Leishmania amazonensis, 24 h, value in µM) was 6.73 µM and the IC50 ([3]; Leishmania amazonensis, 24 h incubation, growth inhibition by counting) was 1.63 ± 0.09 µg/mL. The “Morphological changes of promastigotes (SEM, microscopy)” value [4] was “loss of cell volume, rounder shape, flagellar alterations, and cellular shrinkage”, the “Percentage population of the lower left quadrant gate (FSC-H/SSC-H, cell volume)” value [4] was 62.35% and the “Reduction in ΔΨm” value ([5]; 1 h) was 15%. The “Variation Index (VI)” value ([5]; 1 h) was -0.15, the “Reduction in ΔΨm” value ([5]; 4 h) was 54% and the “Variation Index (VI)” value ([5]; 4 h) was -0.54. For the same molecule, the “Reduction in ΔΨm” value ([5]; 24 h) was 98%, the “Variation Index (VI)” value ([5]; 24 h) was -0.98 and the “Promastigotes LD50” value ([6]; 24 h incubation) was 0.65 µg/mL and 0.65 ± 0.18 µg/mL. The “Promastigotes LD50” value ([6]; 24 h incubation, listed as β-lapachone (2)) was 0.65 ± 0.18 µg/mL, the “Promastigotes LD50” value ([6]; 48 h incubation) was 1.24 µg/mL and 1.24 ± 0.19 µg/mL and the “Promastigotes LD50” value ([6]; 72 h incubation) was 0.71 µg/mL and 0.71 ± 0.03 µg/mL.
